These results are taken from US8852876B2, “Label free biosensors and cells” (Corning Incorporated, priority 2008, dated 2014).

Data set [1] relates to EGF-induced response of quiescent A431 cells. The data set can be described thus: Effect of compound pretreatment on EGF-induced DMR response. Format: cell-based, human. The conditions noted are these: for Effect of pretreatment on 32 nM EGF-induced response: quiescent A431 cells. The method, then:
Both A431 and CHO-K1 cells were grown in Dulbecco's modified Eagle's medium (DMEM) supplemented with 10% fetal calf serum, 100 μg/ml penicillin, and 100 μg/ml streptomycin. For cell culture, certain numbers of cells (2×10^5 to 1×10^6), either A431 or CHO-K1, were suspended in […] medium were placed in each well of a 96 well Corning Epic Biosensor microplate, and were cultured at 37° C. in air/5% CO2 for certain time until the cell density reached ˜90% and above (unless specified). The resulted cells were termed as “profilerating” cells. The “quiescent” cells were obtained by culturing the profilerating cells of desired confluencies with a medium containing no or little (˜0.1% fetal bovine serum (FBS)) for at least 16 hours.
During the assays, the cells in 100 μl medium were subject to two 25 μl HBSS buffer containing 20 mM HEPES, pH 7.4, each separated by at least 15 minutes before 50 μl stimulus-containing solution was applied. During all these steps, a parallel angular interrogation system was used to monitor the real time kinetics of cellular responses. For compound effect studies, a modified protocol was used which starts with 50 μl medium, and subject to sequential treatment: 25 μl HBSS buffer twice (each separated by at least 15 minutes), 50 μl compound solution and finally 50 μl stimulus-containing solution.

The test system of data set [2] is protease activated receptors PAR1 and PAR2. Format: cell-based, human. The conditions noted are these: for Effect of pretreatment on trypsin-mediated DMR signal: 100 or 200 nM trypsin, modulators 10 μM; for Effect of pretreatment on DMR induced by thrombin or trypsin: 40 unit/ml thrombin, 200 nM trypsin, αCD up to 8 mM. The method, then: (§1) Human epidermoid carcinoma A431 cells (American Type Cell Culture) were grown in Dulbecco's modified Eagle's medium (DMEM) supplemented with 10% fetal bovine serum (FBS), 4.5 g/liter glucose, 2 mM glutamine, and antibiotics. ˜3-7.5×10^4 cells at passage 3 to 5 suspended in 200 μl the DMEM medium containing 10% FBS were placed in each well of a 96 well microplate, and were cultured at 37° C. under air/5% CO2 until ˜95% confluency was reached (˜2-4 days).
(§2) The compound or PAR agonist solutions were made in 1×HBSS in order to match the refractive index between the cell medium and compound solution, thus minimizing the unwanted effect of bulk index change due to the introduction of compound solution which can temporarily overwhelms any DMR signal as it occurs.

Data set [3] deals with T1, protease activated receptors PAR1 and PAR2 (Homo sapiens, UniProt P25116).
T1 construct: A431 cells which endogenously express PAR1 and PAR2; endogenous in cells; host or cells: A431
T1 sequence (P25116 22-425): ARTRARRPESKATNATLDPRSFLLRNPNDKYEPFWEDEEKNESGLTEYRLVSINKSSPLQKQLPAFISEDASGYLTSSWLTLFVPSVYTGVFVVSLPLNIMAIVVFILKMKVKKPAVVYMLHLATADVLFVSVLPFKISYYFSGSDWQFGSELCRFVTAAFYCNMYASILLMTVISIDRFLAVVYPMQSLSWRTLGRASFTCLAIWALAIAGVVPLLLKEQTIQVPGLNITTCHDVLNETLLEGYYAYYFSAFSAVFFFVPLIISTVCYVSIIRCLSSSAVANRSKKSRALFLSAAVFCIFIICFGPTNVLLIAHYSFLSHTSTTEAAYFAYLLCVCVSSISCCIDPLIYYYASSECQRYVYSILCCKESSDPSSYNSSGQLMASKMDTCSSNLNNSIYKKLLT
Type of data set: cell-based. The conditions noted are these: 40 unit/ml thrombin; modulators 10 μM. The method, then: as §1, §2

For data set [4], the system named is quiescent A431 cells. The data set can be described thus: H2O2-induced DMR (reactive oxygen species signaling, redox state). Format: cell-based, human. As to conditions: for DMR signal: 4 mM H2O2; for Effect on cell responses mediated with 1 mM H2O2: src kinase modulators. From the text:
In this study, all optical responses were monitored with a wavelength interrogation system. The RWG biosensor is comprised of three major components for bioassay applications: an Epic™ sensor microplate, an RWG detector, and a liquid handling system. The sensor microplate consists of a glass bottom plate attached to a plastic holy plate of a given SBS format (e.g., 96-well or 384-well), which enables high throughput screening. In a 96 well Epic™ sensor microplate, each well contains one RWG sensor of approximately 3×3 mm^2. The RWG sensor consists of a thin film of dielectric material on the grating presenting glass substrate.
The wavelength interrogation detector system is centered on integrated fiber optics. A broadband light source, generated through a fiber optic and a collimating lens at nominally normal incidence through the bottom of the microplate, is used to illuminate a small region of the grating surface. A detection fiber for recording the reflected light is bundled with the illumination fiber. A series of 8 illumination/detection heads are arranged in a linear fashion, so that reflection spectra are collected from all 8 wells within the same column of a microplate at once. With the spatial-controlled movement, the whole plate is moving across the illumination/detection heads so that each sensor can be addressed multiple times, and each column be addressed in sequence. A series of spectra of the reflected lights are collected and used for analysis. Since this detection system measures the wavelength shift of the reflected lights induced by the cell response in response to stimulation, this approach is referred to the wavelength interrogation system.

Data set [5] relates to protease activated receptors PAR1 and PAR2. Briefly: Fluo-3 Ca2+ mobilization assay with PAR agonists. Type of data set: cell-based, human. As to conditions: for Effect of pretreatment on [Ca2+]i elevation mediated by trypsin or thrombin: cholesterol depletion, αCD up to 8 mM. The method, then:
A431 at passage 3 to 5 were grown in Costar™ 96 well clear cell culture microplates until ˜95% confluency, washed twice and starved overnight with the DMEM only, washed with 1×HBSS (1× regular Hank's balanced salt solution, 20 mM HEPES buffer, pH 7.0) in the presence of 2.5 mM probenicid, and labeled in the same buffer containing 4 μM Fluo-3 for 1 hour at room temperature. The cells were then washed twice with buffer, maintained with 100 μl 1×HBSS containing 2.5 mM probenicid. The assay was initiated by transferring 50 μl PAR agonist solution to the cell plate, and calcium signal was recorded over 6 minutes with a 6 sec interval using HTS7000 BioAssay Reader (PerkinElmer Life Science, Boston, Mass.). The assays were carried out at room temperature in order to allow direct comparison with optical sensing data.

Data set [6] has as its system endogenous GPCRs in A431 cells. Briefly: DMR optical biosensor profiling of GPCR agonists. Format: cell-based, human. The conditions noted are these: quiescent A431; first class = Gq-type, second = Gs-type, third = Gi-type, fourth = no significant DMR.
Procedure: Human epidermoid carcinoma A431 cells (American Type Cell Culture) were grown in Dulbecco's modified Eagle's medium (DMEM) supplemented with 10% fetal bovine serum (FBS), 4.5 g/liter glucose, 2 mM glutamine, and antibiotics. ˜3-7.5×10^4 cells at passage 3 to 5 suspended in 200 μl the DMEM medium containing 10% FBS were placed in each well of a 96 well microplate. Similarly ˜1-2×10^4 cells in 50 μl the growth medium were placed in each well of a 384 well microplate. After cell seeding, the cells were cultured at 37° C. under air/5% CO2 until ˜95% confluency was reached (˜2-4 days).
A Corning® Epic™ angular interrogation system with transverse magnetic or p-polarized TM0 mode was used for all studies. Several extra actions were taken to minimize the unwanted effects. First, to minimize the bulk index changes when a compound solution is introduced, 1×HBSS buffer without any probenecid was used to dilute all the compounds, whereas the DMEM buffer only was used to starve the cells. Secondly, to facilitate the cell responses as well as to rapidly reach a steady state when the sensor plates having cells were placed in the system at room temperature, the cells were pre-starved with the DMEM buffer without any FBS for a prolonged period of time (typically 20±2 hours), and the quiescent cells were directly used for assays without any wash.
For kinetics measurements, the cultured cells (˜95% confluency) were starved for about 20 hours with DMEM alone at 37° C. under air/5% CO2. Afterwards, the sensor microplate containing cells was placed into the optical system, and the cell responses were recorded before and after addition of a solution at room temperature. […] All studies were carried out at room temperature with the lid of the microplate on except for a short period of time (˜seconds) when the solution was introduced, in order to minimize the effect of temperature fluctuation and evaporative cooling. The unit of the responses indicated herein was a change in pixel of the central position of the resonant band of each sensor as imaged by a CCD camera; 1 unit equals to ˜5.82×10^−4 refractive index changes, based on an experimental normalization protocol, which uses the concentration-dependent responses of both glycerol and dimethyl sulfoxide.
The panel of agonists were used individually to stimulate quiescent A431 cells. The dose-dependent and kinetic responses were recorded and analyzed. In a typical kinetic measurement, the angular shift of resonant lights of each sensor induced by an agonist is monitored in real time and plotted as a function of time. An increased signal (P-DMR) means an increase in the amount of bio-molecules within the sensing volume (˜120 nm); conversely, a decreased signal (N-DMR) means a decrease in the amount of bio-molecules within the sensing volume. The sensing volume, also known as penetration depth, is an intrinsic property of the coupled light within the waveguide film, which creates an evanescent wave extending into the cell layer and the medium.

Turning to `CN(C)CCCn1cc(C2=C(c3c[nH]c4ccccc34)C(=O)NC2=O)c2ccccc21` [GF 109203x], the “Effect of pretreatment on 32 nM EGF-induced response” value in data set [1] is given as “partial attenuation on the response”. Moreover, in data set [2], the “Effect of pretreatment on trypsin-mediated DMR signal” value is “no obvious effect on both thrombin- and trypsin-mediated DMR signal”. For the same compound, the “Effect of pretreatment on thrombin-mediated DMR signal” value in data set [3] was “no obvious effect on both thrombin- and trypsin-mediated DMR signal”.
With `OO` [H2O2, hydrogen peroxide], in data set [4] (1 mM H2O2), the “DMR signal (shift in incident angle)” value is given as “triggered significant mass redistribution within the sensing volume of the sensors” and the “PWHM of resonant peak of TM0 mode” value is on record as “slightly increased the PWHM of the resonant peak of TM0 mode”. Besides, the DMR signal entry in data set [4] (high redox state cells) is on record as “a characteristic of cells undergoing apoptosis”. The DMR signal entry in data set [4] (low redox state cells) is on record as “a typical DMR signal for the low redox state of cells”. In data set [4] (H2O2 at or above 16 mM), the “DMR signal and Live/Dead cell staining” value is on record as “the cells treated with high doses of H2O2 undergo apoptosis”. Also, the “DMR signal (wavelength shift)” value in data set [4] (H2O2 at or below about 8 mM) is “a typical curve that consists of two major events: an initial peak and a prolonged increased mass signal”.
In the case of `Cc1ccc(-c2nn(C(C)(C)C)c3ncnc(N)c23)cc1` [PP1], the “Effect of pre-treatment on EGF-induced P-DMR and N-DMR signals” value in data set [1] (starved A431 cells, 8 nM EGF, 30-minute pretreatment, GH 0.5 ng/ml, PD98059 0.1 mM, PP1 1 μM, wortmannin 0.1 μM, DIP 50 μM) was “significantly reduced both the binding and DMR signals”. Moreover, the “Effect on cell responses mediated with 1 mM H2O2” value in data set [4] is “significantly suppressed the H2O2-mediated cell responses”.
With `CC(C)(C)n1nc(-c2ccc(Cl)cc2)c2c(N)ncnc21` [PP2], the “Effect on cell responses mediated with 1 mM H2O2” value in data set [4] is listed as “significantly suppressed the H2O2-mediated cell responses”.
Same read-out and setting: the same measure for `Nc1ncnc2c1cnn2-c1ccccc1` [PP3]: “did not affect the responses”.
Turning to `C/C1=C/C(=O)O[C@@H]2C[C@@H](CC[C@H](C)/C=C\C=C\CC1)O[C@@](O)([C@@H]1CSC(=O)N1)C2` [latrunculin A], the “Effect of pretreatment on 32 nM EGF-induced response” value in data set [1] is recorded as “totally abolished the N-DMR signal”. Moreover, in data set [2], the “Effect of pretreatment on trypsin-mediated DMR signal” value is given as “completely blocked either thrombin- or trypsin-mediated DMR signal”. The “Effect of pretreatment on thrombin-mediated DMR signal” value in data set [3] is given as “completely blocked either thrombin- or trypsin-mediated DMR signal”.
Take `COC(=O)Nc1nc2ccc(C(=O)c3cccs3)cc2[nH]1` [nocodazole]: the “Effect of pretreatment on 32 nM EGF-induced response” value in data set [1] is on record as “hardly any effect on the EGF-induced response”. For the same compound, the “Effect of pretreatment on trypsin-mediated DMR signal” value in data set [2] is on record as “neither a stabilizing polymeric F-actin agent phalloidin nor a microtubule disrupter nocodazole had significant effect”. Besides, the “Effect of pretreatment on thrombin-mediated DMR signal” value in data set [3] is on record as “neither a stabilizing polymeric F-actin agent phalloidin nor a microtubule disrupter nocodazole had significant effect”.
For the compound `OC[C@H]1O[C@@H]2O[C@H]3[C@H](O)[C@@H](O)[C@@H](O[C@H]4[C@H](O)[C@@H](O)[C@@H](O[C@H]5[C@H](O)[C@@H](O)[C@@H](O[C@H]6[C@H](O)[C@@H](O)[C@@H](O[C@H]7[C@H](O)[C@@H](O)[C@@H](O[C@H]1[C@H](O)[C@H]2O)O[C@@H]7CO)O[C@@H]6CO)O[C@@H]5CO)O[C@@H]4CO)O[C@@H]3CO` [αCD, α-cyclodextrin], the “Effect of pretreatment on DMR induced by thrombin or trypsin” value in data set [2] is reported as “little effect on both agonist-induced DMR responses”. The Cell detachment entry in data set [2] (high doses (>10 mM)) is listed as “resulted in significant amounts of cells detached from the surface of the biosensors”. Besides, the “Effect of pretreatment on [Ca2+]i elevation mediated by trypsin or thrombin” value in data set [5] is “had no effect on both trypsin and thrombin-induced responses”.
With SFFLR-amide [PAR1-AP], in data set [6], the “Class of optical signature (DMR) induced by agonist” value was “first class of optical signatures”. Further, the “Effect of preceding stimulation on trypsin-induced DMR signal” value in data set [2] (interval about 1 hour) is on record as “significantly suppresses but not completely eliminates the trypsin-induced DMR signal”. For the same compound, in data set [5] (interval 6 min, 200 nM trypsin), the “Effect of preceding stimulation on trypsin-induced [Ca2+]i elevation” value is “significantly attenuated but not completely eliminates the trypsin-induced [Ca^2+]i elevation”. Besides, the “Maximal [Ca2+]i elevation” value in data set [5] (quiescent A431, Fluo-3) was 74.3±3.9%. The “[Ca2+]i elevation after preceding stimulation with thrombin” value in data set [5] (thrombin 40 unit/ml first, interval 6 min) is recorded as 32±4.3%.
Turning to methyl-β-cyclodextrin [mβCD], the “Effect of pretreatment on DMR induced by thrombin or trypsin” value in data set [2] is “a dose-dependent alteration of the optical signatures induced by thrombin or trypsin”. Further, in data set [5], the “Effect of pretreatment on [Ca2+]i elevation mediated by trypsin or thrombin” value was “a dose-dependent suppression of [Ca^2+]i elevation mediated by either trypsin or thrombin”.
